The test system of test [1] is Cryptococcus neoformans. The experiment in a line: Antimicrobial activity against Cryptococcus neoformans ATCC 32719 incubated for 24 hrs by two fold serial dilution method. It is filed as functional.
Test [2] has as its system Aspergillus fumigatus. The experiment in a line: Antimicrobial activity against Aspergillus fumigatus GIMCC 3.19 incubated for 24 hrs by two fold serial dilution method. It is filed as functional.
For test [3], the system named is Aspergillus flavus. The experiment in a line: Antimicrobial activity against Aspergillus flavus ATCC 16870 incubated for 24 hrs by two fold serial dilution method. It counts as functional.
Test [4] deals with Candida tropicalis. The experiment in a line: Inhibition of Candida tropicalis ATCC 750 chitin synthase using UDP-GlcNAc as substrate at 300 ug/ml by TMB based microplate analyzer relative to control. The settings on record: dose 300.0 µg/ml.
For test [5], the system named is Candida albicans. The experiment in a line: Antimicrobial activity against Candida albicans ATCC 76615 incubated for 24 hrs by two fold serial dilution method. It is filed as functional.
Test [6] concerns Aspergillus flavus. The experiment in a line: Antimicrobial activity against Fluconazole-resistant Aspergillus flavus ATCC 16870R incubated for 24 hrs by two fold serial dilution method. It is filed as functional.
The subject of test [7] is Aspergillus fumigatus. The experiment in a line: Antimicrobial activity against Fluconazole-resistant Aspergillus fumigatus GIMCC 3.19R incubated for 24 hrs by two fold serial dilution method. It counts as functional.
For test [8], the system named is Candida albicans. The experiment in a line: Antimicrobial activity against fluconazole-resistant Candida albicans ATCC 76615R incubated for 24 hrs by two fold serial dilution method. It is filed as functional.
Test [9] deals with Cryptococcus neoformans. The experiment in a line: Antimicrobial activity against Fluconazole-resistant Cryptococcus neoformans ATCC 32719R incubated for 24 hrs by two fold serial dilution method. It is filed as functional.
Test [10] can be described thus: Inhibition of Candida tropicalis ATCC 750 chitin synthase using UDP-GlcNAc as substrate by TMB based microplate analyzer.
Test [11] deals with Candida albicans. The experiment in a line: Antimicrobial activity against micafungin-resistant Candida albicans ATCC 76615R incubated for 24 hrs by two fold serial dilution method. It is filed as functional.
Test [12] has as its system Aspergillus fumigatus. The experiment in a line: Antimicrobial activity against Aspergillus fumigatus GIMCC 3.19 assessed as inhibition of cell wall synthesis in presence of sorbitol. It is filed as functional.
In test [13] the test system is Candida tropicalis. The experiment in a line: Non-competitive inhibition of Candida tropicalis ATCC 750 chitin synthase using UDP-GlcNAc as substrate assessed as decrease in Vmax with constant Km by Lineweaver-Burk plot analysis.
Test [14] relates to Cryptococcus neoformans. The experiment in a line: Antimicrobial activity against Cryptococcus neoformans ATCC 32719 assessed as inhibition of cell wall synthesis in presence of sorbitol. It counts as functional.
A short description of test [15]: Binding affinity to Candida tropicalis ATCC 750 chitin synthase assessed as inhibition constant by Lineweaver-Burk plot analysis.
Test [16] deals with Candida albicans. The experiment in a line: Antimicrobial activity against Candida albicans ATCC 76615 assessed as inhibition of cell wall synthesis in presence of sorbitol. It is filed as functional.
Test [17] deals with Aspergillus flavus. The experiment in a line: Antimicrobial activity against Aspergillus flavus ATCC 16870 assessed as inhibition of cell wall synthesis in presence of sorbitol. It is filed as functional.
Test [18] deals with Aspergillus flavus. The experiment in a line: Synergistic antimicrobial activity against Aspergillus flavus ATCC 16870 assessed as fractional inhibitory concentration index incubated for 24 hrs in presence of polyoxin B by checkerboard method. It is filed as functional.
The test system of test [19] is Candida albicans. The experiment in a line: Antimicrobial activity against Candida albicans ATCC 76615 incubated for 24 hrs in presence of fluconazole by checkerboard method. It is filed as functional.
Test [20] deals with Cryptococcus neoformans. The experiment in a line: Additive antimicrobial activity against Cryptococcus neoformans ATCC 32719 assessed as fractional inhibitory concentration index incubated for 24 hrs in presence of fluconazole by checkerboard method. It is filed as functional.
The subject of test [21] is Aspergillus fumigatus. The experiment in a line: Antimicrobial activity against Aspergillus fumigatus GIMCC 3.19 incubated for 24 hrs in presence of polyoxin B by checkerboard method. It counts as functional.
The subject of test [22] is Candida albicans. The experiment in a line: Synergistic antimicrobial activity against Candida albicans ATCC 76615 assessed as fractional inhibitory concentration index incubated for 24 hrs in presence of polyoxin B by checkerboard method. It is filed as functional.
Test [23] concerns Aspergillus flavus. The experiment in a line: Antimicrobial activity against Aspergillus flavus ATCC 16870 incubated for 24 hrs in presence of polyoxin B by checkerboard method. It counts as functional.
Test [24] concerns Cryptococcus neoformans. The experiment in a line: Additive antimicrobial activity against Cryptococcus neoformans ATCC 32719 assessed as fractional inhibitory concentration index incubated for 24 hrs in presence of polyoxin B by checkerboard method. It counts as functional.
For test [25], the system named is Aspergillus flavus. The experiment in a line: Antimicrobial activity against Aspergillus flavus ATCC 16870 incubated for 24 hrs in presence of fluconazole by checkerboard method. It counts as functional.
Test [26] deals with Candida albicans. The experiment in a line: Antimicrobial activity against Candida albicans ATCC 76615 incubated for 24 hrs in presence of polyoxin B by checkerboard method. It is filed as functional.
Test [27] deals with Aspergillus flavus. The experiment in a line: Synergistic antimicrobial activity against Aspergillus flavus ATCC 16870 assessed as fractional inhibitory concentration index incubated for 24 hrs in presence of fluconazole by checkerboard method. It counts as functional.
The test system of test [28] is Candida albicans. The experiment in a line: Synergistic antimicrobial activity against Candida albicans ATCC 76615 assessed as fractional inhibitory concentration index incubated for 24 hrs in presence of fluconazole by checkerboard method. It is filed as functional.
Test [29] has as its system Aspergillus fumigatus. The experiment in a line: Synergistic antimicrobial activity against Aspergillus fumigatus GIMCC 3.19 assessed as fractional inhibitory concentration index incubated for 24 hrs in presence of fluconazole by checkerboard method. It counts as functional.
Test [30] deals with Cryptococcus neoformans. The experiment in a line: Antimicrobial activity against Cryptococcus neoformans ATCC 32719 incubated for 24 hrs in presence of polyoxin B by checkerboard method. It is filed as functional.
Test [31] deals with Cryptococcus neoformans. The experiment in a line: Antimicrobial activity against Cryptococcus neoformans ATCC 32719 incubated for 24 hrs in presence of fluconazole by checkerboard method. It counts as functional.
In test [32] the test system is Aspergillus fumigatus. The experiment in a line: Antimicrobial activity against Aspergillus fumigatus GIMCC 3.19 incubated for 24 hrs in presence of fluconazole by checkerboard method. It is filed as functional.
Test [33] deals with Aspergillus fumigatus. The experiment in a line: Synergistic antimicrobial activity against Aspergillus fumigatus GIMCC 3.19 assessed as fractional inhibitory concentration index incubated for 24 hrs in presence of polyoxin B by checkerboard method. It counts as functional.

In brackets after ≈: the same amount, converted by molar mass. Activity calls are given as the source filed them. No cut-off for these calls is given here.

As usually defined, the MIC is the lowest concentration that inhibits growth of the organism. For orientation: inhibition means the percentage by which the read-out fell short of the control. Broadly, the IC50 is the point on the concentration scale where inhibition reaches its midpoint. Low values mean higher potency, high ones lower potency. The Ki is a dissociation constant, usually derived from enzyme kinetics or from competition with a known ligand.

`CCc1ccc(C(=O)N2CCN(CC(=O)N3CCCC34Cc3ccccc3NC4=O)CC2)cc1` (configuration not stated): the MIC in test [1] came to 32 µg/mL (≈ 69.5 µM); in test [2] it was 64 µg/mL (≈ 139 µM); in test [3], 128 µg/mL (≈ 278 µM); in test [5] it was 32 µg/mL (≈ 69.5 µM). Besides, the inhibition in test [4] stood at 52.8%.
For `COc1cccc(C(=O)N2CCN(CC(=O)N3CCCC34Cc3ccccc3NC4=O)CC2)c1` (configuration not stated), the MIC in [1] was 128 µg/mL (≈ 277 µM); in test [2], 32 µg/mL (≈ 69.2 µM); in test [3], 64 µg/mL (≈ 138 µM); in test [5], 32 µg/mL (≈ 69.2 µM). In test [4], this compound showed an inhibition of 50.7%.
Consider `OC(Cn1cncn1)(Cn1cncn1)c1ccc(F)cc1F` [FLUCONAZOLE], for which the MIC in test [1] is 8 µg/mL (≈ 26.1 µM); in test [6] it was more than 256 µg/mL; in test [7], more than 256 µg/mL; in [2], 4 µg/mL (≈ 13.1 µM); in [8] it was more than 256 µg/mL; in test [3] it was 8 µg/mL (≈ 26.1 µM). In addition, the results for the MIC in test [9] and in test [5] were more than 256 µg/mL and 4 µg/mL (≈ 13.1 µM), respectively.
In the case of `O=C(c1cccc(Br)c1)N1CCN(CC(=O)N2CCCC23Cc2ccccc2NC3=O)CC1` (configuration not stated), the MIC in [1] came out at 32 µg/mL (≈ 62.6 µM); in [2] it was 16 µg/mL (≈ 31.3 µM); in [3], 16 µg/mL (≈ 31.3 µM); in test [5] it was 8 µg/mL (≈ 15.6 µM). In [4], this compound came in with an inhibition of 58.8%. In addition, the IC50 in test [10] amounted to 320 µM.
For the compound `O=C(c1cccc([N+](=O)[O-])c1)N1CCN(CC(=O)N2CCCC23Cc2ccccc2NC3=O)CC1` (configuration not stated), the MIC in [1] came to 32 µg/mL (≈ 67 µM); in test [11], 64 µg/mL (≈ 134 µM); in test [6], 32 µg/mL (≈ 67 µM); in [7], 64 µg/mL (≈ 134 µM); in test [2] it was 8 µg/mL (≈ 16.8 µM); in test [12], 64 µg/mL. Also, the MIC came out at 64 µg/mL (≈ 134 µM) in test [8]; 4 µg/mL (≈ 8.38 µM) in [3]; 256 µg/mL in [14]; 64 µg/mL (≈ 134 µM) in test [9]; 128 µg/mL in test [16]; 4 µg/mL (≈ 8.38 µM) in [5]. In addition, in test [17], the MIC turned out to be 128 µg/mL. The inhibition entry in [13] is “Active”. In addition, the inhibition in [4] worked out at 81.2%. For the same compound, the half-maximal inhibitory concentration (IC50) in [10] was 120 µM. Further, in test [15], the Ki was determined as 140 µM.
Consider `O=C(c1ccc(F)cc1)N1CCN(CC(=O)N2CCCC23Cc2ccccc2NC3=O)CC1` (configuration not stated), for which the MIC in [1] was found to be 16 µg/mL (≈ 35.5 µM); in [11], 64 µg/mL (≈ 142 µM); in test [6] it was 64 µg/mL (≈ 142 µM); in test [7], 64 µg/mL (≈ 142 µM); in test [2], 8 µg/mL (≈ 17.8 µM); in test [12] it was 256 µg/mL. The MIC in [8] worked out at 64 µg/mL (≈ 142 µM); in [3], 8 µg/mL (≈ 17.8 µM); in test [14] it was 128 µg/mL; in test [9] it was 64 µg/mL (≈ 142 µM); in test [16], 64 µg/mL; in [5] it was 4 µg/mL (≈ 8.88 µM). The MIC in [17] amounted to 64 µg/mL. In test [4], this compound displayed an inhibition of 76.7%. In [10], the IC50 is 130 µM.
In the case of `O=C(c1c(F)cccc1F)N1CCN(CC(=O)N2CCCC23Cc2ccccc2NC3=O)CC1` (configuration not stated), the MIC is 8 µg/mL (≈ 17.1 µM) in test [1]; 1 µg/mL in test [19]; 2 µg/mL in test [21]; 64 µg/mL (≈ 137 µM) in [11]; 64 µg/mL (≈ 137 µM) in [6]; 64 µg/mL (≈ 137 µM) in [7]. For the same compound, the MIC in [23] is 1 µg/mL; in [2], 0.5 µg/mL (≈ 1.07 µM); in [12], 64 µg/mL; in test [8], 64 µg/mL (≈ 137 µM); in test [25], 4 µg/mL; in test [3] it was 2 µg/mL (≈ 4.27 µM). Also, the MIC in [26] worked out at 1 µg/mL; in test [14], 256 µg/mL; in test [9], 128 µg/mL (≈ 273 µM); in test [30], 2 µg/mL; in [31] it was 1 µg/mL; in test [16], 128 µg/mL. Also, the values for the MIC in test [5], in test [17] and in test [32] were 1 µg/mL (≈ 2.13 µM), 256 µg/mL and 2 µg/mL, respectively. Besides, the “fractional inhibitory concentration index (FICI)” value amounted to 0.375 in test [18]; 1.125 in test [20]; 0.625 in test [22]; 1.125 in test [24]; 0.75 in test [27]; 0.75 in [28]. Besides, the entries for the “fractional inhibitory concentration index (FICI)” value in test [29] and in test [33] were 0.625 and 0.75, respectively. Moreover, in test [4], the inhibition is 83.4%. The compound also had an IC50 in [10] of 110 µM.

The record behind these values is ChEMBL document CHEMBL5634100, “Novel spiro[pyrrolidine-2,3'-quinoline]-2'-one derivatives containing piperazine fragment as potential chitin synthase inhibitors and antifungal agents: Design, synthesis and biological evaluation” (Eur J Med Chem, 2023).
